What all share (format): functional
Assay [1] concerns Staphylococcus aureus. Nature of the assay: In vitro antimicrobial activity against Staphylococcus aureus 209P NIHJ JCI.
The subject of assay [2] is Pseudomonas aeruginosa. Nature of the assay: In vitro antimicrobial activity against Pseudomonas aeruginosa AK 109.
For assay [3], the system named is Staphylococcus aureus. Nature of the assay: In vitro antimicrobial activity against methicillin resistant Staphylococcus aureus pMS520.
Assay [4] relates to Pseudomonas aeruginosa. Put plainly: In vitro antimicrobial activity against ceftazidime resistant Pseudomonas aeruginosa AKR 17.
The next assay has as its system Escherichia coli. Put plainly: In vitro antimicrobial activity against Escherichia coli NIHJ JC2.
Assay [5] has as its system Staphylococcus epidermidis. Nature of the assay: In vitro antimicrobial activity against methicillin resistant Staphylococcus epidermidis MB5181.
The next assay deals with Rattus norvegicus. Put plainly: Epileptogenicity at 200 ug in rat intracerebroventricular assay.
For a further assay, the species on record is Sus scrofa. Nature of the assay: Porcine renal DHP-1 susceptibility.

Values after ≈ are worked out from the molar mass of the structure shown.

As a reminder, the MIC is the smallest concentration in the dilution series that meets the test's criterion for growth inhibition. For the molecule `C[C@@H](O)[C@H]1C(=O)N2C(C(=O)O)=C(S[C@@H]3CN[C@@H](c4ccc([C@H](N)CC(N)=O)cc4)C3)[C@H](C)[C@H]12`, the MIC against Staphylococcus aureus [1] was less than 6 ng/mL; in the assay with Pseudomonas aeruginosa [2], 1.56 µg/mL (≈ 3.29 µM); with Staphylococcus aureus [3] it was 1.56 µg/mL (≈ 3.29 µM); against Pseudomonas aeruginosa [4] it was 1.56 µg/mL (≈ 3.29 µM); with Escherichia coli, 0.025 µg/mL (≈ 0.0527 µM); in assay [5], 1.56 µg/mL (≈ 3.29 µM). Further, the Epileptogenicity in the assay on Rattus norvegicus is 0. Further, the Susceptibility in the assay filed under Sus scrofa came out at 0.27.
`C[C@@H](O)[C@H]1C(=O)N2C(C(=O)O)=C(S[C@@H]3CN[C@@H](c4ccc(CN)s4)C3)[C@H](C)[C@H]12`: the MIC in the assay with Staphylococcus aureus [1] was less than 6 ng/mL; in the assay on Pseudomonas aeruginosa [2] it was 0.78 µg/mL (≈ 1.84 µM); with Staphylococcus aureus [3] it was 1.56 µg/mL (≈ 3.68 µM); against Pseudomonas aeruginosa [4], 3.13 µg/mL (≈ 7.39 µM); in the assay on Escherichia coli, 0.025 µg/mL (≈ 0.059 µM); in assay [5], 1.56 µg/mL (≈ 3.68 µM). The molecule also returned an Epileptogenicity in the assay on Rattus norvegicus of 5. Moreover, the Susceptibility in the assay listed under Sus scrofa came out at 0.84.
With `C[C@@H](O)[C@H]1C(=O)N2C(C(=O)O)=C(S[C@@H]3CN[C@@H](c4ccc(CN)cc4)C3)[C@H](C)[C@H]12`, the minimal inhibitory concentration (MIC) is less than 6 ng/mL with Staphylococcus aureus [1]; 0.39 µg/mL (≈ 0.934 µM) in the assay with Pseudomonas aeruginosa [2]; 0.78 µg/mL (≈ 1.87 µM) with Staphylococcus aureus [3]; 3.13 µg/mL (≈ 7.5 µM) in the assay with Pseudomonas aeruginosa [4]; 0.025 µg/mL (≈ 0.0599 µM) against Escherichia coli; 1.56 µg/mL (≈ 3.74 µM) in assay [5]. The molecule also displayed an Epileptogenicity with Rattus norvegicus of 5. The same molecule showed a Susceptibility in the assay listed under Sus scrofa of 0.29.
In the case of `C[C@@H](O)[C@H]1C(=O)N2C(C(=O)O)=C(S[C@@H]3CN[C@@H](c4ccc(C(C)(C)N)cc4)C3)[C@H](C)[C@H]12`, the MIC is less than 6 ng/mL in the assay with Staphylococcus aureus [1]; 1.56 µg/mL (≈ 3.5 µM) against Pseudomonas aeruginosa [2]; 1.56 µg/mL (≈ 3.5 µM) against Staphylococcus aureus [3]; 6.25 µg/mL (≈ 14 µM) in the assay with Pseudomonas aeruginosa [4]; 0.05 µg/mL (≈ 0.112 µM) against Escherichia coli; 1.56 µg/mL (≈ 3.5 µM) in assay [5]. In the assay on Rattus norvegicus, this molecule displayed an Epileptogenicity of 0. This molecule also came in with a Susceptibility in the assay filed under Sus scrofa of 0.37.
As for `C[C@@H](O)[C@H]1C(=O)N2C(C(=O)O)=C(S[C@@H]3CN[C@@H](c4ccc(CCN)cc4)C3)[C@H](C)[C@H]12`, the MIC in the assay on Staphylococcus aureus [1] was less than 6 ng/mL; against Pseudomonas aeruginosa [2], 0.78 µg/mL (≈ 1.81 µM); in the assay with Staphylococcus aureus [3], 1.56 µg/mL (≈ 3.61 µM); in the assay with Pseudomonas aeruginosa [4] it was 6.25 µg/mL (≈ 14.5 µM); with Escherichia coli, 0.025 µg/mL (≈ 0.0579 µM); in assay [5] it was 3.13 µg/mL (≈ 7.25 µM). The Epileptogenicity in the assay on Rattus norvegicus came to 3. Besides, the Susceptibility in the assay filed under Sus scrofa was 0.26.

For the origin of these results see ChEMBL document CHEMBL1132752, “Structure-activity relationships of trans-3,5-disubstituted pyrrolidinylthio-1beta-methylcarbapenems. Part 2: J-111,225, J-114,870, J-114,871 and related compounds” (2000).
